From ChEMBL document CHEMBL3525917, “Species difference in the mechanism of nonlinear pharmacokinetics of E2074, a novel sodium channel inhibitor, in rats, dogs, and monkeys” (Drug Metab Dispos, 2013)

Assays:
[1] = Oral bioavailability in cynomolgus monkey at 3 mg/kg; format: ADME, organism-based, Macaca fascicularis; conditions: in vivo
[2] = Oral bioavailability in Sprague-Dawley rat at 10 mg/kg; format: ADME, organism-based; conditions: in vivo
Canis familiaris = organism: Canis familiaris; assay: Unbound intrinsic clearance in beagle dog; format: ADME, organism-based, Canis lupus familiaris; conditions: in vivo
Liver microsome [3] = assay: (§1) Drug metabolism in beagle dog liver microsomes after 30 mins by Michaelis-Menten plot analysis; format: ADME, Canis lupus familiaris; conditions: microsomes, 0.5 h
[4] = as §1; format: ADME, Canis lupus familiaris; conditions: beagle, liver microsomes
Rattus norvegicus [5] = organism: Rattus norvegicus; assay: Unbound intrinsic clearance in Sprague-Dawley rat; format: ADME, organism-based; conditions: in vivo
[6] = Half life in Sprague-Dawley rat at 3 mg/kg, po; format: ADME, organism-based; parameters: dose 3 mg/kg, route oral; conditions: in vivo
Cynomolgus monkey [7] = assay: Ratio of dose normalized AUC in cynomolgus monkey at 1 mg/kg, iv in presence of ketoconazole to dose normalized AUC in cynomolgus monkey at 1 mg/kg, iv; format: ADME, organism-based, Macaca fascicularis; conditions: in vivo
[8] = Blood clearance in Sprague-Dawley rat; format: ADME, organism-based
Cynomolgus monkey [9] = assay: Unbound intrinsic clearance in cynomolgus monkey; format: ADME, organism-based, Macaca fascicularis; conditions: in vivo
[10] = AUC in Sprague-Dawley rat at 30 mg/kg, po; format: ADME, organism-based; parameters: dose 30 mg/kg, route oral; conditions: plasma
[11] = AUC in cynomolgus monkey at 10 mg/kg, po in presence of ketoconazole; format: ADME, organism-based, Macaca fascicularis; parameters: dose 10 mg/kg, route oral; conditions: plasma
[12] = AUC in cynomolgus monkey at 3 mg/kg, po in presence of ketoconazole; format: ADME, organism-based, Macaca fascicularis; parameters: dose 3 mg/kg, route oral; conditions: plasma
[13] = Oral bioavailability in beagle dog at 10 mg/kg; format: ADME, organism-based, Canis lupus familiaris; conditions: in vivo
[14] = Cmax in cynomolgus monkey at 3 mg/kg, po in presence of ketoconazole; format: ADME, organism-based, Macaca fascicularis; parameters: dose 3 mg/kg, route oral; conditions: in vivo
[15] = AUC in Sprague-Dawley rat at 10 mg/kg, po; format: ADME, organism-based; parameters: dose 10 mg/kg, route oral; conditions: plasma
Cynomolgus monkey [16] = assay: Hepatic blood clearance in cynomolgus monkey; format: ADME, organism-based, Macaca fascicularis; conditions: in vivo
[17] = AUC in wild-type mouse at 3 mg/kg, po; format: ADME, organism-based; parameters: dose 3 mg/kg, route oral; conditions: plasma
[18] = AUC in cynomolgus monkey at 10 mg/kg, po; format: ADME, organism-based, Macaca fascicularis; parameters: dose 10 mg/kg, route oral; conditions: plasma
[19] = biological target: MDR1A (P-glycoprotein, ABCB1) (Mus musculus, UniProt P21447); assay: Activity of mouse MDR1A expressed in pig LLC-PK1 cells assessed as efflux ratio of permeability from basolateral to apical side to apical to basolateral side at 1 uM after 2 hrs; format: ADME, cell-based
[20] = Oral bioavailability in Sprague-Dawley rat at 30 mg/kg; format: ADME, organism-based; conditions: in vivo
[21] = Drug metabolism in cynomolgus monkey intestinal microsomes by Michaelis-Menten plot analysis; format: ADME, Macaca fascicularis, Intestine, Microsome
[22] = Drug metabolism in beagle dog intestinal microsomes; format: ADME, Canis lupus familiaris, Intestine, Microsome
[23] = biological target: MDR1A (ABCB1, P-glycoprotein) (Mus musculus, UniProt P21447); assay: Activity of mouse MDR1A expressed in pig LLC-PK1 cells assessed as permeability from apical to basolateral side at 1 uM after 2 hrs; format: ADME, cell-based; conditions: read-out: permeability
Liver microsome [24] = assay: (§2) Drug metabolism in beagle dog liver microsomes after 30 mins by biphasic component Michaelis-Menten plot analysis; format: ADME, Canis lupus familiaris; conditions: microsomes, 0.5 h
[25] = as §2; format: ADME, Canis lupus familiaris; conditions: beagle, liver microsomes
[26] = AUC in cynomolgus monkey at 1 mg/kg, iv; format: ADME, organism-based, Macaca fascicularis; parameters: dose 1 mg/kg, route intravenous; conditions: plasma
[27] = AUC in cynomolgus monkey at 3 mg/kg, po; format: ADME, organism-based, Macaca fascicularis; parameters: dose 3 mg/kg, route oral; conditions: plasma
[28] = Ratio of drug level in blood to plasma in beagle dog at 0.25 uM after 10 mins by equilibrium dialysis technique; format: ADME, Canis lupus familiaris; conditions: blood and plasma
Rattus norvegicus [29] = organism: Rattus norvegicus; assay: Hepatic blood clearance in Sprague-Dawley rat; format: ADME, organism-based; conditions: in vivo
[30] = Half life in cynomolgus monkey at 3 mg/kg, po in presence of ketoconazole; format: ADME, organism-based, Macaca fascicularis; parameters: dose 3 mg/kg, route oral; conditions: in vivo
[31] = Tmax in cynomolgus monkey at 3 mg/kg, po; format: ADME, organism-based, Macaca fascicularis; parameters: dose 3 mg/kg, route oral; conditions: in vivo
Cynomolgus monkey [32] = assay: Ratio of dose normalized Cmax in cynomolgus monkey at 10 mg/kg, po in presence of ketoconazole to dose normalized Cmax in cynomolgus monkey at 10 mg/kg, po; format: ADME, organism-based, Macaca fascicularis; conditions: in vivo
[33] = AUC in MDR1A/1B knock-out mouse at 3 mg/kg, po; format: ADME, organism-based; parameters: dose 3 mg/kg, route oral; conditions: plasma
[34] = Half life in beagle dog at 3 mg/kg, po; format: ADME, organism-based, Canis lupus familiaris; parameters: dose 3 mg/kg, route oral; conditions: in vivo
[35] = AUC in cynomolgus monkey at 1 mg/kg, iv in presence of ketoconazole; format: ADME, organism-based, Macaca fascicularis; parameters: dose 1 mg/kg, route intravenous; conditions: plasma
[36] = Volume of distribution at steady state in cynomolgus monkey at 1 mg/kg, iv in presence of ketoconazole; format: ADME, organism-based, Macaca fascicularis; parameters: dose 1 mg/kg, route intravenous; conditions: in vivo, read-out: Vdss
[37] = Clearance in cynomolgus monkey at 1 mg/kg, iv; format: ADME, organism-based, Macaca fascicularis; parameters: dose 1 mg/kg, route intravenous; conditions: in vivo
[38] = AUC in beagle dog at 3 mg/kg, po; format: ADME, organism-based, Canis lupus familiaris; parameters: dose 3 mg/kg, route oral; conditions: plasma
[39] = AUC in Sprague-Dawley rat at 1 mg/kg, iv; format: ADME, organism-based; parameters: dose 1 mg/kg, route intravenous; conditions: plasma
Cynomolgus monkey [40] = assay: Ratio of dose normalized AUC in cynomolgus monkey at 10 mg/kg, po in presence of ketoconazole to dose normalized AUC in cynomolgus monkey at 10 mg/kg, po; format: ADME, organism-based, Macaca fascicularis; conditions: in vivo
[41] = Fraction unbound in beagle dog liver microsomes at 0.25 uM by equilibrium dialysis technique; format: ADME, Canis lupus familiaris
[42] = Clearance in cynomolgus monkey at 1 mg/kg, iv in presence of ketoconazole; format: ADME, organism-based, Macaca fascicularis; parameters: dose 1 mg/kg, route intravenous; conditions: in vivo
[43] = Blood clearance in cynomolgus monkey; format: ADME, organism-based, Macaca fascicularis
[44] = Half life in beagle dog at 10 mg/kg, po; format: ADME, organism-based, Canis lupus familiaris; parameters: dose 10 mg/kg, route oral; conditions: in vivo
[45] = Cmax in beagle dog at 3 mg/kg, po; format: ADME, organism-based, Canis lupus familiaris; parameters: dose 3 mg/kg, route oral; conditions: in vivo
[46] = Cmax in Sprague-Dawley rat at 3 mg/kg, po; format: ADME, organism-based; parameters: dose 3 mg/kg, route oral; conditions: in vivo
[47] = Cmax in cynomolgus monkey at 10 mg/kg, po; format: ADME, organism-based, Macaca fascicularis; parameters: dose 10 mg/kg, route oral; conditions: in vivo
[48] = Tmax in beagle dog at 3 mg/kg, po; format: ADME, organism-based, Canis lupus familiaris; parameters: dose 3 mg/kg, route oral; conditions: in vivo
[49] = Drug metabolism in cynomolgus monkey liver microsomes after 15 mins by Michaelis-Menten plot analysis; format: ADME, Macaca fascicularis
[50] = AUC in Sprague-Dawley rat at 3 mg/kg, po; format: ADME, organism-based; parameters: dose 3 mg/kg, route oral; conditions: plasma
[51] = Clearance in Sprague-Dawley rat at 1 mg/kg, iv; format: ADME, organism-based; parameters: dose 1 mg/kg, route intravenous; conditions: in vivo

Chain of MDR1A (ABCB1, P-glycoprotein) (P21447 whole entry): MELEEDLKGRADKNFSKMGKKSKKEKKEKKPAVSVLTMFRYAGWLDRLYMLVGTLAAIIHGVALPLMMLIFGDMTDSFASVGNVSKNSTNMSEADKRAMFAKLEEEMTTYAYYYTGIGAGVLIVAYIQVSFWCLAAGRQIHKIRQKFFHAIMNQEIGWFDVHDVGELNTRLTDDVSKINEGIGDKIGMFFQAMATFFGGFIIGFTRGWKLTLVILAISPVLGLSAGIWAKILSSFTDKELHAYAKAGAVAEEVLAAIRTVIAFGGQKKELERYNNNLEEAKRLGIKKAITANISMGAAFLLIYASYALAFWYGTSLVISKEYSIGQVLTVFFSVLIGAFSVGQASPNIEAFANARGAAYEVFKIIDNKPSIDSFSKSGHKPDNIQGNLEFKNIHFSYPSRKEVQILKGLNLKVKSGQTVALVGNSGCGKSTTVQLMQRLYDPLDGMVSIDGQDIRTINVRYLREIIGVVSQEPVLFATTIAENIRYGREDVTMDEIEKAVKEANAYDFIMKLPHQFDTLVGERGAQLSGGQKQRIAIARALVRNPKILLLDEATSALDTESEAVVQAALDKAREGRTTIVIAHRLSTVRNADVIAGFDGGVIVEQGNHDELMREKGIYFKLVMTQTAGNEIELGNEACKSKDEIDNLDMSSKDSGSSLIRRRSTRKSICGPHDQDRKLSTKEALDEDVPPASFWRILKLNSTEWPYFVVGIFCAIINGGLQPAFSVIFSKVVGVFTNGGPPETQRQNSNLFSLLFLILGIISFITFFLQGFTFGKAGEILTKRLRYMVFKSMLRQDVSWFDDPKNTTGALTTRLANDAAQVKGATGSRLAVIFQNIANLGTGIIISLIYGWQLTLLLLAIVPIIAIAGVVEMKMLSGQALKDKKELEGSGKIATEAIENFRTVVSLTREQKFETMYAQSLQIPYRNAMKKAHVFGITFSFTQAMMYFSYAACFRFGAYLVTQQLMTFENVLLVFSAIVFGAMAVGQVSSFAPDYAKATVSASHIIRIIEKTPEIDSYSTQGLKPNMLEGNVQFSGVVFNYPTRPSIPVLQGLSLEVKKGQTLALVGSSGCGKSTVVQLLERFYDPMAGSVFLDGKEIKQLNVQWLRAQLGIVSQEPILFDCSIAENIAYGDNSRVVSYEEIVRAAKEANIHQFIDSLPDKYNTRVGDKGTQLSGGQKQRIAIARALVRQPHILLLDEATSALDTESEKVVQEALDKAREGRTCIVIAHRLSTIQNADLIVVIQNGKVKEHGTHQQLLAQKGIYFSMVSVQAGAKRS
Chain of MDR1A (P-glycoprotein, ABCB1) (P21447 whole entry): as above

Cc1nn(C[C@H](F)CN2C3CCC2CC(OCc2cccc(F)c2)C3)c(=O)n1C (some centres undefined)
bioavailability [1]: 7.8% | bioavailability [2]: 5.3% | CL free (Canis familiaris): 208 µL/min/mg | Vmax (Liver microsome [3]): 0.07 nmol/min/mg | Km at 0.5 h [4]: 0.41 µM | CL free (Rattus norvegicus [5]): 196 µL/min/mg | half-life [6]: 30 min | Ratio (Cynomolgus monkey [7]): 1 | clearance [8]: 60 mL/min/kg | CL free (Cynomolgus monkey [9]): 84 µL/min/mg | AUC [10]: 1420 ng·h/mL | AUC [11]: 7090 ng·h/mL | AUC [12]: 1550 ng·h/mL | bioavailability [13]: 43.7% | Cmax [14]: 400 ng/mL | AUC [15]: 170 ng·h/mL | CLH (Cynomolgus monkey [16]): 33 mL/min/kg | AUC [17]: 230 ng·h/mL | AUC [18]: 1580 ng·h/mL | efflux ratio at 2 h, 1 µM [19]: 3.14 | bioavailability [20]: 15.1% | Km ([21]; intestinal microsomes): 34.6 µM | Vmax ([21]; microsomes): 0.66 nmol/min/mg | Drug metabolism [22]: metabolite_not_detected | Papp A→B at 2 h, 1 µM [23]: 9.67 ×10⁻⁶ cm/s | Vmax (Liver microsome [24]): 0.72 nmol/min/mg | Km at 0.5 h [25]: 21.5 µM | AUC [26]: 700 ng·h/mL | AUC [27]: 180 ng·h/mL | blood plasma ratio at 10 min, 0.25 µM [28]: 0.86 | CLH (Rattus norvegicus [29]): 53.2 mL/min/kg | half-life [30]: 132 min | Tmax [31]: 60 min | Ratio (Cynomolgus monkey [32]): 4.5 | AUC [33]: 240 ng·h/mL | half-life [34]: 54.6 min | AUC [35]: 820 ng·h/mL | Vd [36]: 3.29 L/kg | clearance [37]: 22.5 mL/min/kg | AUC [38]: 20 ng·h/mL | AUC [39]: 310 ng·h/mL | Ratio (Cynomolgus monkey [40]): 6.3 | fraction unbound at 0.25 µM [41]: 1 | clearance [42]: 20.3 mL/min/kg | clearance [43]: 22.3 mL/min/kg | half-life [44]: 109 min | Cmax [45]: 20 ng/mL | Cmax [46]: 20 ng/mL | Cmax [47]: 470 ng/mL | Tmax [48]: 30 min | Km at 0.25 h ([49]; liver microsomes): 42.4 µM | Vmax ([49]; microsomes, 0.25 h): 3.58 nmol/min/mg | AUC [50]: 20 ng·h/mL | clearance [51]: 53.5 mL/min/kg
